{
  "source": "patent US7196180B2",
  "about": "“Functionalized derivatives of hyaluronic acid, formation of hydrogels in situ using same, and methods for making and using same” (Orthogene LLC, priority 1998, dated 2007)",
  "origin": "cited, not measured here",
  "data": [
    {"smiles": "NCCCCN", "note": "[putrescine]", "values": [
      {"measurement": "pKa", "result": "> 9"}
    ]}
  ]
}
